The values below come from patent EP4818187A1, “COMPOUND AND USE THEREOF” (Ganzhou Hemay Pharmaceutical, Co., Ltd, priority 2023, dated 2025).

The structures appear in SMILES notation.

For this series, the system named is human gastric cancer NCI-N87. Briefly: Biological Example 3: in vivo xenograft model of human gastric cancer NCI-N87. The note with it: nude mice. Details: species or system Balb/c-nu nude mice. On the procedure:
First, the xenograft model of human gastric cancer NCI-N87 was established subcutaneously in nude mice by inoculation with a cell-matrigel mixture. When the xenograft tumor grew to a volume of 100-300 mm^3 and maintained stable growth, the experimental animals were randomly grouped using remainder method based on the tumor volume and administered with drugs. The tumor volume was measured 2 to 3 times every week. After the dosing period was completed, the experimental animals were killed, and the subcutaneous tumors were excised and weighed. The anti-tumor activity of the drug in this model was evaluated based on relevant data of the tumor volumes and the tumor weights. Table 8: List of experimental animal groups and dosage regimens
Calculation formula of the tumor volume: volume=0.5× long diameter × short diameter^2. Relative tumor volume(RTV): RTV = Vt/ V0 [formula]
V0 is the tumor volume measured at the time of grouping for dosing (i.e., d0), and Vt is the tumor volume measured each time. Relative tumor proliferation rate(T/C): T/C = TRTV /CRTV × 100% [formula]
T is the mean RTV of the test compound, and C is the mean RTV of the model control group. [formula] Body weight change percentage = Wn /W0 × 100% [formula]
Wn: mean body weight of each group of experimental animals on day n, and W0: mean body weight of each group of experimental animals on day 0.
The purchased experimental animals were subjected to balanced feeding for 3 days. A xenograft model was established in nude mice by inoculation with a cell-matrigel mixture: conventionally cultured NCI-N87 cells in the logarithmic growth phase were sampled, digested, collected, and adjusted with PBS to a cell density of 6×10^7 cells/mL. In an ice water bath, the cell suspension was slowly added to an equal volume of matrigel, the system was fully mixed, and then the xenograft model was established by subcutaneous inoculation in the right armpit of male nude mice, with 0.15 mL/mouse and a cell inoculum size of approximately 4.5 million cells/mouse.
The tumor growth of the model animals was regularly observed. When the mean tumor volume of the model nude mice reached about 100-300 mm^3, the experimental animals were randomly grouped using the remainder method based on the tumor volume, and administered with drugs. The day on which the animals were grouped was day 0. After grouping, drugs were administered to each group according to Table 8. The dosage or dosing period can be appropriately adjusted based on the tumor growth and the animal state. After administration, the tumor volumes of the experimental animals were measured 2-3 times every week until the experiment was completed. After the dosing period was completed, the experimental animals were killed, and the subcutaneous tumors were excised and weighed. The anti-tumor activity of each compound in this model was evaluated based on relevant data of the tumor volumes and tumor weights. Table 9: Effect on growth of xenograft model of human gastric cancer NCI-N87
The test was performed based on the dosage regimen in Table 10, following the method in Biological Example 2. Table 10: List of dosage regimens
(A xenograft is tissue or cells of one species grown in another, often human tumour cells in immunodeficient mice.)

On to `CC[C@H](C)[C@@H]([C@@H](CC(=O)N1CCC[C@H]1[C@H](OC)[C@@H](C)C(=O)N[C@H](C)[C@@H](OCc1ccc(O[C@@H]2O[C@H](C(=O)[O-])[C@@H](O)[C@H](O)[C@H]2O)cc1OCc1cn(CCCCCC(=O)Nc2ccc(-c3ccc(/N=N/c4ccc5c(S(=O)(=O)[O-])cc(S(=O)(=O)[O-])c(N)c5c4O)c(C)c3)cc2C)nn1)c1ccccc1)OC)N(C)C(=O)[C@@H](NC(=O)[C@H](C(C)C)N(C)C)C(C)C.[Na+].[Na+].[Na+]` [Example compound 2], for which, for the setting “15 mg/kg i.v. qw×2”, the “Final body weight change (%)” value is on record as 11.4%; the “Maximum body weight change (%)” value is 11.4, d26%; the “Relative volume RTV (x±S.D.)” value is 0.48±0.07; the “T/C (%)” value is reported as 5.9%. Besides, for the setting “15 mg/kg i.v. qw×2”, the “Tumor inhibition rate (%)” value was 96.4% and the “Tumor weight (g, x±S.D.)” value is 0.048 ± 0.009 g. Further, the “Body weight (g, x±S.D.) End” value (15 mg/kg i.v. qw×2, End) came to 26.9 ± 1.3 g. Under “15 mg/kg i.v. qw×2, Start”, the “Body weight (g, x±S.D.) Start” value amounted to 24.2 ± 1.5 g.
